Measurements taken from patent US6946125B2, “Methods of treating West Nile virus infection” (The New York Hospital Medical Center of Queens, priority 2000, dated 2005).

What was measured:
[1] = system: West Nile virus (WNV); experiment: Suppression of West Nile virus in Vero cell culture, colorimetric assay of cellular lactic dehydrogenase (O.D. 490); conditions: for Mean O.D. 490 value: Vero cells
Method: The vertical axis represents a colorimetric assay of cellular lactic dehydrogenase which is directly proportional to cell viability and proliferation.
(§1) In vitro: Studies have been conducted utilized a bovine kidney cell monolayer infected with a strain of WNV isolated from mosquitoes and birds in Connecticut. Cytotoxicity was assayed by measuring the decrease in release of lactate dehydrogenase from infected cells, as compared with uninfected controls.

[2] = cited from earlier work
[3] = system: mice; experiment: Mutagenicity of ribavirin in mice; conditions: from mice
[4] = system: mice; conditions: cited from earlier work
[5] = system: green monkey kidney cells; experiment: Cytotoxic effect of ribavirin in cell culture; assay type: cell-based
Method: as §1

[6] = after 600 mg given every 6 hours; cited from earlier work

## NC(=O)c1ncn([C@@H]2O[C@H](CO)[C@@H](O)[C@H]2O)n1 [Ribavirin, 1-β-D-ribofuranosyl-1H-1,2,4-triazole-3-carboxamide, reference compound]
[1]; Ribavirin 0.2 uM applied 2 hours prior to infection of cells with WNV
  Mean O.D. 490 value: 0.72c
[1]; Ribavirin 0.3 uM applied 2 hours prior to infection of cells with WNV
  Mean O.D. 490 value: 1.11a
[1]; Ribavirin 0.4 uM applied 2 hours prior to infection of cells with WNV
  Mean O.D. 490 value: 1.24b
[1]; Ribavirin 0.5 uM applied 2 hours prior to infection of cells with WNV
  Mean O.D. 490 value: 1.24b
[1]; Ribavirin 0.6 uM applied 2 hours prior to infection of cells with WNV
  Mean O.D. 490 value: 1.06a
[1]; WNV infection of bovine kidney cells in vitro
  concentration protective or prophylactic against infection: 400 µM
[1]; applied after infection
  concentration that suppressed viral replication: 500 µM
[1]; bovine kidney cells
  activity in vitro against WNV infection: active
[1]; equivalent of 400 uM
  protective concentration expressed as mass concentration: approximately 100 ug/ml
[2]; high doses
  dose at which inhibition of erythrocyte release from bone marrow occurs: 30 mg/kg
[2]; human, in vivo
  reduction from baseline hematocrit: ≤ 20%
  reduction in baseline hemoglobin: 10-12%
  toxicity (in words): hemolysis
[2]; patients with renal dysfunction
  Bioavailability: increased
[2]; should not be given during, or within 6 months of pregnancy
  teratogenicity: teratogenic
[3]
  estimated human equivalent of mutagenic dose: 1.67 to 16.7 mg/kg
[4]
  dose known to be mutagenic: 20 to 200 mg/kg
[5]
  concentration at which a cytotoxic effect occurred: 600 to 1000 µM
[6]
  concentration in human serum: 1 µg/mL
